A short description of the data set: Screening test of saccharides: thickness of tableted product tableted to hardness 5 N. It is filed as physicochemical. The conditions noted are these: protein powder and saccharide weight ratio 1:1, tableted to hardness 5 N; compared among eight saccharides (Fig. 1). The text has this: The tableting characteristics of various saccharides were confirmed, and saccharides suitable for the production of a solid molded body were screened. First, 2.0 g each (within an error of 0.003 g) of a protein powder (WPC392 manufactured by Fonterra Japan Limited) and any one of the saccharides shown below were weighed and mixed to prepare a composition containing 50 parts by weight each of the protein and the saccharide (weight ratio 1:1). Each of the obtained compositions was tableted with the tableting force appropriately adjusted so that the composition would have a hardness of 5 N after being tableted. As a result, a tableted product having a hardness of 5 N was obtained. The thickness of the obtained tableted product was measured. Note that in the Examples, the thicknesses of a tableted product and a solid molded body are values each measured using a caliper (ABS digimatic caliper CD-AX, manufactured by Mitutoyo Corporation), and the hardnesses of a tableted product and a solid molded body are values each measured using a load cell type tablet hardness tester (PC-30 manufactured by OKADA SEIKO CO., LTD.).

As to `OC[C@H]1O[C@H](O[C@H]2[C@H](O)[C@@H](O)C(O)O[C@@H]2CO)[C@H](O)[C@@H](O)[C@@H]1O` (mixture of isomers) [maltose, Maltose], the “thickness of the tableted product” value is given as “largest thickness”.

The values above are taken from patent EP4817425A1, “COMPOSITION AND SOLID MOLDED BODY” (Nagase & Co., Ltd., priority 2023, dated 2025).
